Where “and” joins values, the source holds several entries; their conditions need not be identical. Equal entries are not always repeated. Marks after values point to notes of the source that are not given here.
Key:
HCT-116 cells [1] = assay: MTT metabolic activity assay; type: cell-based, human; conditions: 48 h post-treatment, CFT 100 µg/mL, CFP 50 µg/mL combined with 5-FU
Caco-2 cells = assay: MTT metabolic activity assay; type: cell-based, human; conditions: 24 h post-treatment, 5-Fluorouracil 4µM
Procedure: Cells were plated at 2^∗104cells/ml in 96-well plates and incubated overnight. The following day, cells were treated in triplicate with Ceftazdime or 5-fluorouracil for 24-48 h, depending on the cell line used. Metabolic activity of the cells was studied using the MTT assay that measures the ability of metabolically active cells to convert tetrazolium salt into a blue formazan product, the absorbance of which is recorded at 540 nm by an ELISA reader (Bio-Rad iMark Microplate Reader).

HCT-116 cells [2] = assay: Cell cycle distribution, propidium iodide staining; type: cell-based, human; conditions: CFT 100 µg/mL, CFP 50 µg/mL, 5-FU 8 µM, alone or combined, mean ± SE
Procedure: Propidium iodide (PI) staining was used to evaluate the effect of the different treatments on the cell cycle. […] Fixed cells, which were washed with PBS and incubated at 37 °C for 1 h with 50 µl RNase (1 mg/ml) (Sigma Aldrich, Germany), were stained for 15 minutes with PI (Molecular Probes, Eugene, Oregon, USA).

DLD-1 cells = assay: Caspase-3/7 activity assay; type: cell-based, human; conditions: CFT 100 µg/ml alone, vs. control untreated cells
Procedure: Caspase-3/7 activity was measured 48 h and 72 h post-treatment according to the manufacturer's protocol (Caspase-Glo-3/7 Assay, Promega Corp, Madison, WI, USA). Briefly, equal volume from treated cells and caspase-3/7 mixture were incubated at room temperature for 3 h and the luminescence was measured by a microplate reader.
DLD-1 cells were treated with CFT (100 µg/ml) or 5-Fluorouracil (16 µM). Caspase-3/7 activity was measured 48 h and 72 h post-treatment according to the manufacturer's protocol (Caspase-Glo-3/7 Assay, Promega Corp, Madison, WI, USA). Briefly, equal volume from treated cells and caspase 3/7 mixture were incubated at room temperature for 3 h and the luminescence was measured by a microplate reader.

[3] = Stability in media, LC-MS/MS; type: physicochemical; conditions: antibiotic alone (CFP 50 µg/mL, CFT 100 µg/mL)
Procedure: B) CFT (100 µg/ml) ± 5-FU (8 µM and 16 µM). P value (a) (between antibiotic alone and 5-FU (8 µM)); P value (b) (between antibiotic alone and 5-FU (16 µM)), n = 3.

In the case of CC(C)(O/N=C(\C(=O)N[C@@H]1C(=O)N2C(C(=O)[O-])=C(C[n+]3ccccc3)CS[C@H]12)c1csc(N)n1)C(=O)O [CFT, (6R,7R)-7-[[(2Z)-2-(2-amino-1,3-thiazol-4-yl)-2-(2-carboxypropan-2-yloxyimino)acetyl]amino]-8-oxo-3-(pyridin-1-ium-1-ylmethyl)-5-thia-1-azabicyclo[4.2.0]oct-2-ene-2-carboxylate], the “effect on 5-FU's effect on metabolic activity (in words)” value (HCT-116 cells [1]) is reported as “antagonized 5-FU's effect”, the “inhibition of proliferation (metabolic activity)” value (Caco-2 cells) is reported as 30% and the “percentage of cells in G2/M” value (HCT-116 cells [2]; 48 h) is reported as 24.4 ± 1.2%. For the same compound, the “percentage of cells in Pre G1” value (HCT-116 cells [2]; 48 h) was 6.4 ± 2.3^(a) %, the “percentage of cells in S” value (HCT-116 cells [2]; 48 h) was 12.8 ± 2.9% and the “percentage of cells in G0/G1” value (HCT-116 cells [2]; 72 h) was 56.9 ± 1.3^(a) %. For the same compound, the “percentage of cells in G2/M” value (HCT-116 cells [2]; 72 h) was 24.3 ± 0.5^(a) %, the “percentage of cells in Pre G1” value (HCT-116 cells [2]; 72 h) was 9.8% and 9.8 ± 0.9^(a) % and the “percentage of cells in S” value (HCT-116 cells [2]; 72 h) was 6.6 ± 1.0%. For the same compound, the “increase of the activity of caspase 3/7” value (DLD-1 cells; 48 h) was 20%, the “increase of the activity of caspase 3/7” value (DLD-1 cells; 72 h) was 32.1% and the “Stability test, level in media” value ([3]; 2h in media) was 104.4 ± 2.5. For the same compound, the “Stability test, level in media” value ([3]; 8h in media) was 103.4 ± 10.8.

Reference: patent EP4108244A1, “SS-LACTAM ANTIBIOTIC WITH SIGNIFICANT ACTIVITY AGAINST CANCER E.G. COLON MALIGNANCIES” (priority 2021, dated 2022)
